Results: the NIST ThermoML archive (doi:10.1021/je4004417)
Where “and” joins values, the source holds several entries; their conditions need not be identical. Equal entries are not always repeated. ± gives the expanded uncertainty stated by the source.

Legend:
[1] = Liquid, Closed cell (Static) method
[2] = refractive index (Na D-line) (dimensionless); conditions: 293.15 K; 101.33 kPa; Liquid; Standard Abbe refractometry

Row | SMILES | vapor or sublimation pressure ([1]; 343.15 K) | vapor or sublimation pressure ([1]; 363.15 K) [kPa] | vapor or sublimation pressure ([1]; 393.15 K) [kPa] | refractive index [2]
1 | CCCCCCC [heptane] | 40.4 ± 0.31 kPa | 78.59 ± 0.43 | 183.7 ± 2.2 | 1.3877 ± 0.0007
2 | O=CN1CCOCC1 [N-formylmorpholine] | 0.16 ± 0.21 kPa and 0.15 ± 0.21 kPa | 0.49 ± 0.21 | 2.18 ± 0.21 | 1.4844 ± 0.0007
3 | CCCCCC [hexane] | 105.47 ± 2.2 kPa | 190.95 ± 2.3 | 400.27 ± 2.5 | 1.3748 ± 0.0007
